Test results as given in publication PMC5112770 (ACS chemical neuroscience, 2015).
Where two headings read alike, the source gives them in different places.

Tests used:
[1] = molecular target: T1, tau (Homo sapiens, UniProt P10636); type: biochemical
[2] = molecular target: T1, tau; type: biochemical; remark: listed apart in the source

T1 sequence (P10636 1-441 isoform P10636-8): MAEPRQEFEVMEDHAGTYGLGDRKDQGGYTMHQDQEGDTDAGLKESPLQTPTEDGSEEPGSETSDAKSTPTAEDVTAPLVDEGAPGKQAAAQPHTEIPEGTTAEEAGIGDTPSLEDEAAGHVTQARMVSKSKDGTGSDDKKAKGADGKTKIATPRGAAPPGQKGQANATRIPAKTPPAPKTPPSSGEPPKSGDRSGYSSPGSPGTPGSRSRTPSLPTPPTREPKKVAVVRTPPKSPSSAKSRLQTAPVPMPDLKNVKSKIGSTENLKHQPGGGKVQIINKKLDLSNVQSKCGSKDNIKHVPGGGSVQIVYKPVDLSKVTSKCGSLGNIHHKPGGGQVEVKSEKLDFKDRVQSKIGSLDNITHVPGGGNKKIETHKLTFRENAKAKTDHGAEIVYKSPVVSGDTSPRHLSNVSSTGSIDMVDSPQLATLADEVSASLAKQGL

IC50 [1]	IC50 [2]	SMILES
216 ± 18 µM		CC[C@H](C)/C=C(C)/C=C/C1=CC2=C(Br)C(=O)C(C)(O)C(=O)C2=CO1 (some centres unmarked) [aza-13]
	56 ± 14 µM	CC[C@H](C)/C=C(C)/C=C/C1=CC2=C(Br)C(=O)C(C)(OC(C)=O)C(=O)C2=CO1 (some centres unmarked) [aza-9]
